In US12599141B2, “Rod-shaped plant viral nanoparticles or virus-like particles for agricultural applications” (priority 2016, dated 2026):

Columns and labels:
[1] = CV release profile from CVTMGMV, dialysis-based assay; type: physicochemical; settings: 10 mM KP buffer
Description: The release of CV from TMGMV was evaluated using a dialysis-based assay.
Next, we evaluated the release profile of CV from the TMGMV nanocarrier. […] We tested the release profile at room temperature and 4° C. to evaluate two extreme upper soil thermal conditions. Sodium acetate (pH 5.2) and PBS (pH 7.4) buffer solutions were chosen to mimic the acidic and neutral soil environments, respectively. Diffusion of CV from CVTMGMV was also evaluated in KP (pH 7.8) buffer, which was used during loading and storing conditions of the sample. Free CV, in a concentration matched to the concentration and number loaded into TMGMV, was also dialyzed in KP buffer (pH 7.8) at 4° C. as a positive control.

[2] = ref: PubChem CID 11057; cited from earlier work
[3] = Soil mobility (leaching through 4 cm top soil column); type: physicochemical
Description: The following soil mobility test was designed to establish the leaching of CVTMGMV and free CV in a soil column. […] One mL aliquots of CVTMGMV or free CV (the concentration was 100 mM normalized to the drug concentration) were applied atop of the soil columns, followed by 50 elution fractions of 300 μL DI water. Each collected elution fraction was centrifuged for 10 min at 12,000 rpm to precipitate remaining soil particles. The supernatant was subsequently analyzed by UV-vis spectroscopy (see above).
A soil mobility test was designed to establish the leaching of CVTMGMV and free CV in soil. Briefly, top soil was packed in a plastic column up to a height of 4 cm and saturated with deionized (DI) water. CVTMGMV or free CV was applied atop the soil columns, followed by DI water. Fractions were collected from the soil column, purified, and analyzed by UV-vis spectroscopy for the presence of TMGMV and CV. The λ260 (RNA) and λ280 (CP) wavelengths were monitored to quantify the amount of TMGMV that leached through the soil.

C. elegans = C. elegans motility assay in liquid culture; type: in vivo, Caenorhabditis elegans
Description: OP50-1 E. coli and C. elegans strain N2 were provided by the Caenorhabditis Genetics Center (CGC) from the University of Minnesota, which is funded by NIH office of Research Infrastructure Programs P40 OD010440. Nematodes were cultured using 100 mm×15 mm sterile polystyrene Petri dishes (FB0875712, Fisher). […] Nematodes were then cultured on the OP50-1 E. coli plates at 22° C. […] OP50-1 E. coli pellet stocks were resuspended in S basal and added to the liquid culture to provide a food source to the nematodes.
Bioavailability of CVTMGMV and free CV to C. elegans was investigated in liquid culture (see above). 50 Nematodes were added to each well of a 24-well culture plate to a final volume of 1 mL. […] The percent of affected nematodes (sum of the nematodes on scale (2) and (3)) as a function of time and the effective concentration (EC50) were determined comparing free CV, TMGMV, and CVTMGMV.
Bioavailability of CVTMGMV and free CV in Caenorhabditis elegans (C. elegans) was investigated in liquid culture. C. elegans nematode motility was classified as either (1) totally immobilized, (2) impaired motility, or (3) […] nematodes. To illustrate the data that were collected, a series of snap shots of C. elegans incubated with no treatment, 10 μM of CV, and 10 μM of CVTMGMV were taken every second for 60 s. […] Five nematodes were selected in each treatment regime and pseudocolored to illustrate their motility.
At specific time points, nematodes were observed under a white light microscope, and the percent of affected nematodes (sum of the nematodes on scale (2) and (3)) was quantified as a function of time. The effective concentration (EC50), defined as the concentration of CV at which half of the maximum immobilization of C. elegans was reached, was determined for free CV and CVTMGMV (FIGS. 5D-G).

## CN(C)c1ccc(C(=C2C=CC(=[N+](C)C)C=C2)c2ccc(N(C)C)cc2)cc1 [CV, hexamethyl parparosaniline chloride]
[1]; pH 7.8, 4° C. (storing conditions)
  time to 50% of CV released/dialyzed: ≤ 1.6 h
[1]; pH 7.8, 4° C., dialysis over 72 h
  time to complete release of CV: < 18 h
[2]
  Koc: 6.1×10^5
[3]
  eluted concentration of CV, times lower than CVTMGMV: 3.6 times
C. elegans; 1 μM
  incubation time to maximum efficacy: 6 h
C. elegans; 1 μM, within the first hour
  nematodes paralyzed/dead: about 15%
C. elegans; 10 μM
  incubation time to maximum efficacy: 6 h
C. elegans; 10 μM, after 3 h of incubation
  motility by time lapse imaging: severe motility impairment
C. elegans; 10 μM, within the first hour
  nematodes paralyzed/dead: about 30%
C. elegans; 100 μM, within 1 h, 22° C.
  nematodes paralyzed/dead: Sixty
C. elegans; Caenorhabditis elegans, 6 h, read-out: maximum efficacy (nematodes affected)
  Emax at 1 µM: ~25%
C. elegans; Caenorhabditis elegans, 24 h, read-out: EC50 (concentration of CV at half of maximum immobilization of C. elegans)
  EC50: 3.7 µM
C. elegans; Caenorhabditis elegans, read-out: maximum efficacy (nematodes affected)
  Emax at 10 µM: ~50%
C. elegans; doses lower than 1 μM
  effect on nematode motility vs untreated population: no significant effect on nematode motility
